From patent US10463671B2, “Combination therapy for treating cancer” (Epizyme, Inc., priority 2013, dated 2019)

Assays:
Test in all cases: RT2 Glucocorticoid Signaling PCR array
Format in all cases: cell-based
[1] = tested on: glucocorticoid signaling genes in OCI-LY19 cells; conditions: compared to DMSO; OCI cell line; 4 days
Procedure: (§1) Gene expression was normalized to array's B2M and fold change compared to DMSO was calculated using the ΔΔCt method.

[2] = tested on: glucocorticoid signaling genes in DOHH2 cells; conditions: vs DMSO; DOHH2, 4 days
Procedure: as §1

[3] = tested on: glucocorticoid signaling genes in SU-DHL10 cells; parameters: IL10 Ct Values / TNF Ct Values: unit not given here; conditions: SUDHL10, 4 days

## CCN(c1cc(-c2ccc(CN3CCOCC3)cc2)cc(C(=O)NCc2c(C)cc(C)[nH]c2=O)c1C)C1CCOCC1 [Compound 44]
[1]
  ΔΔCT, ADARB1: −0.788
  ΔΔCT, ARID5B: 0.231
  ΔΔCT, PDCD7: 0.024
  ΔΔCT, SPHK1: 0.018
[2]
  FKBP5 ΔΔCT: −0.032
  SPSB1 ΔΔCT: −0.025
[3]
  ACTB Ct Values: 14.828
  ADARB1 Ct Values: 31.215
  AFF1 Ct Values: 29.849
  AK2 Ct Values: 20.974
  AMPD3 Ct Values: 27.654
  ANGPTL4 Ct Values: 32.107
  ANXA4 Ct Values: 24.961
  ARID5B Ct Values: 28.208
  ASPH Ct Values: 23.837
  ATF4 Ct Values: 20.607
  B2M Ct Values: 19.147
  BCL6 Ct Values: 22.639
  CEBPA Ct Values: 28.900
  CEBPB Ct Values: 26.624
  CREB1 Ct Values: 23.809
  CREB3 Ct Values: 26.452
  CREB3L4 Ct Values: 26.139
  CYB561 Ct Values: 37.004
  DDIT4 Ct Values: 26.109
  DUSP1 Ct Values: 31.300
  EHD3 Ct Values: 26.768
  FKBP5 Ct Values: 22.883
  FOSL2 Ct Values: 32.931
  GAPDH Ct Values: 17.793
  GDPD1 Ct Values: 30.943
  GOT1 Ct Values: 25.306
  H6PD Ct Values: 28.126
  HNRPLL Ct Values: 23.764
  HPRT1 Ct Values: 20.615
  IL1RN Ct Values: 32.182
  IL6R Ct Values: 33.807
  IL10 Ct Values: 32.505
  KLF9 Ct Values: 32.525
  KLF13 Ct Values: 24.536
  LOX Ct Values: 35.385
  MERTK Ct Values: 34.652
  MT2A Ct Values: 37.225
  NFKBIA Ct Values: 23.654
  NR3C1 Ct Values: 23.754
  PDCD7 Ct Values: 25.123
  PDP1 Ct Values: 26.175
  PER1 Ct Values: 27.710
  PER2 Ct Values: 24.780
  PIK3R1 Ct Values: 24.661
  PLEKHF1 Ct Values: 28.979
  POU2F1 Ct Values: 25.842
  POU2F2 Ct Values: 25.098
  RASA3 Ct Values: 24.277
  RGS2 Ct Values: 25.587
  RHOB Ct Values: 27.829
  RHOJ Ct Values: 36.530
  RPLP0 Ct Values: 16.821
  SESN1 Ct Values: 27.480
  SGK1 Ct Values: 25.358
  SLC10A6 Ct Values: 37.060
  SLC19A2 Ct Values: 30.597
  SLC22A5 Ct Values: 30.263
  SNTA1 Ct Values: 27.003
  SPHK1 Ct Values: 27.804
  SPSB1 Ct Values: 26.133
  STAT5A Ct Values: 25.275
  STAT5B Ct Values: 24.281
  TBL1XR1 Ct Values: 21.846
  TNF Ct Values: 23.725
  TNFAIP3 Ct Values: 27.677
  TSC22D3 Ct Values: 28.871
  USP2 Ct Values: 23.434
  USP54 Ct Values: 27.789
  VDR Ct Values: 29.514
  VLDLR Ct Values: 32.904
  ZFP36 Ct Values: 26.643
  ZHX3 Ct Values: 26.305
  ZNF2B1 Ct Values: 23.857
[3]; normalized to B2M
  ACTB ΔCT (B2M): −4.319
  ADARB1 ΔCT (B2M): 12.068
  AFF1 ΔCT (B2M): 10.702
  AK2 ΔCT (B2M): 1.827
  AMPD3 ΔCT (B2M): 8.507
  ANGPTL4 ΔCT (B2M): 12.960
  ANXA4 ΔCT (B2M): 5.814
  ARID5B ΔCT (B2M): 9.061
  ASPH ΔCT (B2M): 4.690
  ATF4 ΔCT (B2M): 1.460
  B2M ΔCT (B2M): 0.000
  BCL6 ΔCT (B2M): 3.492
  CEBPA ΔCT (B2M): 9.753
  CEBPB ΔCT (B2M): 7.477
  CREB1 ΔCT (B2M): 4.662
  CREB3L4 ΔCT (B2M): 6.992
  CREB3 ΔCT (B2M): 7.305
  CYB561 ΔCT (B2M): 17.857
  DDIT4 ΔCT (B2M): 6.962
  DUSP1 ΔCT (B2M): 12.153
  EHD3 ΔCT (B2M): 7.621
  FKBP5 ΔCT (B2M): 3.736
  FOSL2 ΔCT (B2M): 13.784
  GAPDH ΔCT (B2M): −1.354
  GDPD1 ΔCT (B2M): 11.796
  GOT1 ΔCT (B2M): 6.159
  H6PD ΔCT (B2M): 8.979
  HNRPLL ΔCT (B2M): 4.617
  HPRT1 ΔCT (B2M): 1.468
  IL1RN ΔCT (B2M): 13.035
  IL6R ΔCT (B2M): 14.660
  IL10 ΔCT (B2M): 13.358
  KLF9 ΔCT (B2M): 13.378
  KLF13 ΔCT (B2M): 5.389
  LOX ΔCT (B2M): 16.238
  MERTK ΔCT (B2M): 15.505
  MT2A ΔCT (B2M): 18.078
  NFKBIA ΔCT (B2M): 4.507
  NR3C1 ΔCT (B2M): 4.617
  PDCD7 ΔCT (B2M): 5.976
  PDP1 ΔCT (B2M): 7.028
  PER1 ΔCT (B2M): 8.563
  PER2 ΔCT (B2M): 5.633
  PIK3R1 ΔCT (B2M): 5.514
  PLEKHF1 ΔCT (B2M): 9.832
  POU2F1 ΔCT (B2M): 6.695
  POU2F2 ΔCT (B2M): 5.951
  RASA3 ΔCT (B2M): 5.130
  RGS2 ΔCT (B2M): 6.440
  RHOB ΔCT (B2M): 8.682
  RHOJ ΔCT (B2M): 17.383
  RPLP0 ΔCT (B2M): −2.326
  SESN1 ΔCT (B2M): 8.333
  SGK1 ΔCT (B2M): 6.211
  SLC10A6 ΔCT (B2M): 17.913
  SLC19A2 ΔCT (B2M): 11.450
  SLC22A5 ΔCT (B2M): 11.116
  SNTA1 ΔCT (B2M): 7.856
  SPHK1 ΔCT (B2M): 8.657
  SPSB1 ΔCT (B2M): 6.986
  STAT5A ΔCT (B2M): 6.128
  STAT5B ΔCT (B2M): 5.134
  TBL1XR1 ΔCT (B2M): 2.699
  TNF ΔCT (B2M): 4.578
  TNFAIP3 ΔCT (B2M): 8.530
  TSC22D3 ΔCT (B2M): 9.724
  USP2 ΔCT (B2M): 4.287
  USP54 ΔCT (B2M): 8.642
  VDR ΔCT (B2M): 10.367
  VLDLR ΔCT (B2M): 13.757
  ZFP36 ΔCT (B2M): 7.496
  ZHX3 ΔCT (B2M): 7.158
  ZNF2B1 ΔCT (B2M): 4.710
[3]; vs DMSO
  ARID5B ΔΔCT: 0.650
  EHD3 ΔΔCT: −0.885
  FKBP5 ΔΔCT: 0.042
  PIK3R1 ΔΔCT: 0.431
  SLC19A2 ΔΔCT: −1.143
  USP54 ΔΔCT: −0.064
